Reference: patent publication US7807462B2, “Method for producing a functional neuron” (University of Medicine and Dentistry of New Jersey, priority 2004, dated 2010)

Assays:
[1] = tested on: adult human mesenchymal stem cells (MSC); experiment: Microscopic examination of morphology of retinoic acid-treated MSC; format: cell-based; settings: RA 30 μM
Method: By way of illustration, MSC were treated with all-trans-retinoic acid and examined microscopically at 400× magnification. The purpose was to observe morphological changes as the cells were exposed to a known differentiating agent.

[2] = tested on: adult human mesenchymal stem cells (MSC); experiment: Immunofluorescence for neural-specific markers in RA-treated MSC; format: cell-based
Method: It was subsequently determined whether the retinoic acid-treated MSC express neuron-specific proteins. Cells were labeled for MAP2, which predominantly labels the cell bodies and dendrites; Neurofilament to stain for cell bodies and axons; and nestin for changes in morphology to neuronal cells. Synaptophysin was also analyzed as it is an indicator of synaptic regions. Labeling with anti-MAP2 and anti-synaptophysin were performed at different times following retinoic acid treatment. Untreated MSCs stained dim with MAP2, but negative for synaptophysin. In contrast, retinoic acid-treated cells stained bright for MAP2 at each time point, i.e., day 6, day 9 and day 12 retinoic acid treatment. […] This pattern of synaptophysin increased up to day 12 of treatment. Patterns were similar in ten different experiments, each with MSC from a different bone marrow donor.
RA-treated MSCs were washed with PBS (pH 7.4) and incubated for 1 hour at room temperature with the following antibodies: rabbit anti-MAP2 and/or synaptophysin monoclonal antibody at final concentrations of 1/500 and 1/200 respectively. In other labeling studies, cells were incubated with anti-GFAP, anti-neurofilament or anti-nestin, each at 1/500 final concentration. Antibodies were diluted in 0.05% TWEEN™/PBS (PBT) for membrane permeabilization. Primary antibodies were developed with secondary FITC-goat anti-rabbit IgG and PE-rat anti-mouse κ, both at final concentrations of 1/500. Secondary antibodies were incubated for 45 minutes at room temperature in the dark. After labeling, cells were fixed with 0.4% paraformaldehyde and then covered with VECTASHIELD®. Slides were immediately examined on a 3-color immunofluorescence microscope (NIKON® Instruments Inc., Melvelle, N.Y.).

[3] = tested on: MSC treated with retinoic acid for 6 days (functional neurons); experiment: Immunofluorescence/immunohistochemistry for substance P (SP) in RA-treated MSC; format: cell-based, human
Method: Administration or implantation of cultured neurons in a damaged tissue, in vivo, is influenced by the microenvironment. Thus, to determine whether a functional neuron could be influenced to express a particular neurotransmitter, expression of the preprotachykinin-I gene (PPT-I), which encodes the neurotransmitter substance P (SP), was analyzed. Regulation of the PPT-I gene has been studied in the context of inflammatory mediators that are presumed to be at the site of neural injury. […] Furthermore the receptor for IL-1 has been reported in neurons (Coti, et al. (2004) Frontier Biosci. 9:1433-1449). MSC, treated with retinoic acid for 6 days, were stimulated with 10 ng/mL of IL-1α for 16 hours and the cells studied for SP production by immunofluorescence using anti-SP. Treated cells were also labeled for synaptovesicle 2 to determine if SP is stored in synaptic vesicle. […] Retinoic acid-treated MSC were labeled with anti-SP and anti-synaptovesicle. The two labels were overlaid to gain insight as to the location of SP. […]
MSC on superfrost slides were treated with RA. […] The latter determined whether SP was stored in synaptic vesicles. SP and anti-synaptic vesicle protein 2 were detected with anti-rabbit IgG FITC and anti-mouse IgG1 κ PE, respectively. […]

[4] = tested on: PPT-I gene expression in retinoic acid-treated MSC; experiment: In situ hybridization for β-PPT-I in RA-treated MSC; format: cell-based, human; settings: cocktail of three antisense oligomers; three bone marrow donors
Method: Thus, it was determined whether the PPT-I gene was expressed in retinoic acid-treated MSC by in situ hybridization with a cocktail of three oligomers.
MSC were cultured as above on superfrost slides and then washed with 0.05% PBT. Cells were hybridized by incubation with 500 μL of hybridization buffer (Sigma, St. Louis, Mo.). After 2 hours, slides were incubated with 200 μL of hybridization buffer containing a cocktail (200 ng/mL) of denatured biotin-conjugated β-PPT-1-specific oligo probes based on GENBANK Accession No. U37529 (Table 1). Control slides were incubated with a mixture of similar oligos in the sense orientations. Slides were subsequently incubated overnight at 37° C. in a humid chamber. Slides were washed with SSC solution and hybrids detected by incubation for 1 hour at room temperature with FITC-streptavidin at 1/500 dilution. Slides were covered with PBS and immediately examined with an immunofluorescence microscope.

[5] = tested on: adult human mesenchymal stem cells (MSC); experiment: Whole-cell patch clamp electrophysiological recordings of RA-treated MSC; settings: for postsynaptic current amplitude / postsynaptic current decay time / postsynaptic current frequency / postsynaptic current half rise time: voltage clamp
[6] = functional neurons in culture for 6 days

Q: Which results are given for `CC1=C(/C=C/C(C)=C/C=C/C(C)=C/C(=O)O)C(C)(C)CCC1` [retinoic acid, All-trans-retinoic acid]?
A: morphology of treated MSC ([1]; day 4): neuron-like structures; morphology of treated MSC ([1]; day 7): cell bodies with long thin processes and growth cones; morphology of treated MSC ([1]; treated 1 day, 400× magnification): asymmetrical morphology; synaptophysin fluorescence ([2]; 6-day treatment): slight fluorescence; glial fibrillary acidic protein (GFAP) staining ([2]; all treated cells): negative; synaptophysin fluorescence ([2]; day 9 of treatment): brighter fluorescence; MAP2 staining ([2]; each time point: day 6, day 9 and day 12 of treatment, ten experiments): bright; percentage of functional neurons developed, by immunostaining for neurofilament, MAP2 and nestin ([2]; n=100): 80±10 percentage; synaptophysin fluorescence ([2]; up to day 12 of treatment): increased; fluorescence for SP in unstimulated treated MSC ([3]; no IL-1α stimulation): dim fluorescence; PPT-I in situ hybridization fluorescence in cell bodies of neurons [4]: bright fluorescence; resting membrane potential ([5]; current clamp): −50 mV; spontaneous action potential firing frequency ([5]; current clamp): 20 s⁻¹; action potential amplitude ([5]; current clamp, measured from resting membrane potential): 63.4±17.4 mV; action potential half-width ([5]; current clamp, n=768 events): 19.25 ± 0.73 ms; action potential rise time ([5]; current clamp, n=768 events): 3.39 ± 0.11 ms; fit of decay of postsynaptic currents [5, 6]: single exponential function; half rise time of some spontaneous post-synaptic currents [5, 6]: around 2 ms; fit of decay of postsynaptic currents ([5]; functional neurons in culture for 15 days): two exponentials; treated cells showing action potential by electrophysiology ([5]; n=25): one hundred; postsynaptic current amplitude ([5]; first set, n=171 events): 29.9±1.3 pA; postsynaptic current decay time ([5]; first set, n=171 events): 36.5 ± 1.0 ms; postsynaptic current frequency ([5]; first set, n=171 events): 2.49 s⁻¹; postsynaptic current half rise time ([5]; first set, n=171 events): 12.96 ± 0.89 ms; postsynaptic current amplitude ([5]; second set, n=99 events): 6.1±0.2 pA; postsynaptic current decay time ([5]; second set, n=99 events): 31.3 ± 1.3 ms; postsynaptic current frequency ([5]; second set, n=99 events): 1.24 s⁻¹; postsynaptic current half rise time ([5]; second set, n=99 events): 1.84 ± 0.13 ms

B1: IL-1α: Recombinant human IL-1α (rhIL-1α) provided by Hoffman LaRoche (protein, UniProt P01583 113-271, looked up)
Interleukin-1 alpha: SAPFSFLSNVKYNFMRIIKYEFILNDALNQSIIRANDQYLTAAALHNLDEAVKFDMGAYKSSKDDAKITVILRISKTQLYVTAQDEDQPVLLKEMPEIPKTITGSETNLLFFWETHGTKNYFTSVAHPNLFIATKQDYWVCLAGGPPSITDFQILENQA
Q: For B1, which “fluorescence intensity for SP” value ([3]; MSC treated with retinoic acid 6 days, stimulated with 10 ng/mL IL-1α for 16 hours, six experiments) is on record?
A: bright fluorescence intensity
